According to ChEMBL document CHEMBL1201862, “PubChem BioAssay data set” (2004):
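Step 1: Grow cells in 96-well plates. Step 2: Expose to compound for 48 hours at 5 concentrations. Step 3: Interpolate endpoints linearly; if unreached, use highest concentration. GI50 marks 50% less growth.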 Active and inactive are the calls of the source. Cut-off read from the data, not from the text of the source: active = GI50 up to about 1.1 µM and inactive = higher.

What was measured:
Assay in all cases: NCI-60 cell line screen, 48 h
ACHN = test system: ACHN
SNB-75 = test system: SNB-75
HCT-15 = test system: HCT-15
UACC-257 = test system: UACC-257
DMS-273 = test system: DMS-273
SF-295 = test system: SF-295
NCI-H23 = test system: NCI-H23
KM-20L2 = test system: KM-20L2
RXF 393 = test system: RXF 393
DMS-114 = test system: DMS-114
A498 = test system: A498
HCT-116 = test system: HCT-116
NCI-H226 = test system: NCI-H226
NCI-H522 = test system: NCI-H522
MOLT-4 = test system: MOLT-4
SK-MEL-28 = test system: SK-MEL-28
SNB-78 = test system: SNB-78
NCI-H460 = test system: NCI-H460
IGROV-1 = test system: IGROV-1
OVCAR-5 = test system: OVCAR-5
K562 = test system: K562
Malme-3M = test system: Malme-3M
OVCAR-3 = test system: OVCAR-3
U-251 = test system: U-251
UO-31 = test system: UO-31
786-0 = test system: 786-0
HOP-62 = test system: HOP-62
TK-10 = test system: TK-10
UACC-62 = test system: UACC-62
RPMI-8226 = test system: RPMI-8226
HT-29 = test system: HT-29
SN12C = test system: SN12C
CCRF-CEM = test system: CCRF-CEM
HCC 2998 = test system: HCC 2998
M19-MEL = test system: M19-MEL
KM12 = test system: KM12
SR = test system: SR
XF498 = test system: XF498
SK-MEL-2 = test system: SK-MEL-2
COLO 205 = test system: COLO 205
SK-MEL-5 = test system: SK-MEL-5
M14 = test system: M14
LXFL 529 = test system: LXFL 529
HL-60 = test system: HL-60
LOX IMVI = test system: LOX IMVI
DLD-1 = test system: DLD-1
SK-OV-3 = test system: SK-OV-3
EKVX = test system: EKVX
HOP-18 = test system: HOP-18
SF-268 = test system: SF-268
RXF 631 = test system: RXF 631
OVCAR-8 = test system: OVCAR-8
A549 = test system: A549

## CC1(C)CC(=O)C/C(=N/c2ccc([N+](=O)[O-])cc2)C1
ACHN
  GI50: > 100 µM (inactive)
SNB-75
  GI50: > 100 µM (inactive)
HCT-15
  GI50: 64.3 µM
UACC-257
  GI50: > 100 µM (inactive)
DMS-273
  GI50: > 100 µM (inactive)
SF-295
  GI50: > 100 µM (inactive)
NCI-H23
  GI50: > 100 µM (inactive)
KM-20L2
  GI50: > 100 µM (inactive)
RXF 393
  GI50: 47.4 µM (inactive)
DMS-114
  GI50: 41.4 µM (inactive)
A498
  GI50: > 100 µM (inactive)
HCT-116
  GI50: 17.6 µM (inactive)
NCI-H226
  GI50: > 100 µM (inactive)
NCI-H522
  GI50: 40.9 µM (inactive)
MOLT-4
  GI50: 58.6 µM (inactive)
SK-MEL-28
  GI50: > 100 µM (inactive)
SNB-78
  GI50: > 100 µM (inactive)
NCI-H460
  GI50: > 100 µM (inactive)
IGROV-1
  GI50: > 100 µM (inactive)
OVCAR-5
  GI50: > 100 µM (inactive)
K562
  GI50: 35.6 µM (inactive)
Malme-3M
  GI50: > 100 µM (inactive)
OVCAR-3
  GI50: 76.4 µM (inactive)
U-251
  GI50: 16.3 µM (inactive)
UO-31
  GI50: 54.6 µM (inactive)
786-0
  GI50: > 100 µM (inactive)
HOP-62
  GI50: > 100 µM (inactive)
TK-10
  GI50: > 100 µM (inactive)
UACC-62
  GI50: > 100 µM (inactive)
RPMI-8226
  GI50: 53.5 µM (inactive)
HT-29
  GI50: 87.3 µM (inactive)
SN12C
  GI50: 71.8 µM (inactive)
CCRF-CEM
  GI50: 20.4 µM (inactive)
HCC 2998
  GI50: > 100 µM (inactive)
M19-MEL
  GI50: 66.2 µM (inactive)
KM12
  GI50: > 100 µM (inactive)
SR
  GI50: 57 µM (inactive)
XF498
  GI50: > 100 µM (inactive)
SK-MEL-2
  GI50: > 100 µM (inactive)
COLO 205
  GI50: 29.6 µM (inactive)
SK-MEL-5
  GI50: > 100 µM (inactive)
M14
  GI50: > 100 µM (inactive)
LXFL 529
  GI50: > 100 µM (inactive)
HL-60
  GI50: 80.5 µM (inactive)
LOX IMVI
  GI50: 19.2 µM (inactive)
DLD-1
  GI50: 21.1 µM (inactive)
SK-OV-3
  GI50: > 100 µM (inactive)
EKVX
  GI50: > 100 µM (inactive)
HOP-18
  GI50: > 100 µM (inactive)
SF-268
  GI50: > 100 µM (inactive)
RXF 631
  GI50: > 100 µM (inactive)
OVCAR-8
  GI50: > 100 µM (inactive)
A549
  GI50: > 100 µM (inactive)
